As a reminder, the IC50 is the midpoint of a concentration-inhibition curve. One may read the IC90 as the concentration at which the effect reaches the 90% level.

Consider one compound from PMC8761492 (Life Science Alliance, 2022).

Holding throughout (experiment): microbe, parasite or virus in culture
Type in all cases: cell-based
Holding throughout (conditions): Severe acute respiratory syndrome coronavirus 2, HeLa-ACE2, 48 h

For assay [1], the system named is SARS-CoV-2 δ (B.1.617.2).
The test system of assay [2] is SARS-CoV-2 μ (B.1.621).
In assay [3] the test system is SARS-CoV-2 α (B.1.1.7).
Assay [4] concerns SARS-CoV-2 β (B.1.351).
Assay [5] relates to SARS-CoV-2 ο (B.1.1.529).

Starred links: 1 amine or outer side, 2 acyl side, 3 side chain; linkers in the order of their positions; H or OH if unused. Positions of bridges follow the written chain, without caps; N, C: chain ends. Non-standard residues stand in square brackets, D forms with d. Residues, ends and D or L forms follow the SMILES beside them. *: point of attachment. X1 = CC[C@H](C)[C@@H](N[*:1])[C@@H](O)CC(=O)O[C@H](C(=O)[C@H](C)C(=O)[*:2])C(C)C; NMeY = CN[C@@H](Cc1ccc(O)cc1)C(=O)O; dNMeL = CN[C@H](CC(C)C)C(=O)O; Pyruvoyl = CC(=O)C(=O)*

For `CC[C@H](C)[C@H]1NC(=O)[C@@H](NC(=O)[C@@H](CC(C)C)N(C)C(=O)[C@@H]2CCCN2C(=O)C(C)=O)[C@@H](C)OC(=O)[C@H](Cc2ccc(OC)cc2)N(C)C(=O)[C@@H]2CCCN2C(=O)[C@H](CC(C)C)NC(=O)[C@@H](C)C(=O)[C@H](C(C)C)OC(=O)C[C@@H]1O` [Plitidepsin] (Pyruvoyl-P[dNMeL]T[X1]LP[NMeY](Me); ester 3-C), the IC50 came out at 0.089 nM in assay [1] (read-out: Antiviral IC50); 0.266 nM in assay [2] (read-out: Antiviral IC50); 0.052 nM in assay [3] (read-out: Antiviral IC50); 0.077 nM in assay [4] (read-out: Antiviral IC50); 0.291 nM in assay [5] (read-out: Antiviral IC50). Moreover, the IC90 in assay [1] (read-out: Antiviral IC90) is 0.511 nM; in assay [2] (read-out: Antiviral IC90), 1.03 nM; in assay [3] (read-out: Antiviral IC90) it was 0.161 nM; in assay [4] (read-out: Antiviral IC90) it was 0.419 nM; in assay [5] (read-out: Antiviral IC90), 0.887 nM.
